Assay [1] deals with T1, caspase-1 (Homo sapiens, UniProt P29466).
T1 construct: purchased Calbiochem
T1 sequence (P29466 120-297 limits assumed): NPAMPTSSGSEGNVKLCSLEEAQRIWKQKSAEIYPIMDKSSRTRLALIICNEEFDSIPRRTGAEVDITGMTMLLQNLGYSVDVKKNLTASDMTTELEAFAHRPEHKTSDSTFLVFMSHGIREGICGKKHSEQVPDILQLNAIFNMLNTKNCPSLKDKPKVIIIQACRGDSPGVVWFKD
As to the kind of experiment: In vitro digestion of immunoprecipitated TOE1 with recombinant caspase-1, Western blot. Conditions: caspase-1 incubation 4 hours at 37° C., FIG. 4. The assay is classed as biochemical. As to the method: FIG. 4: TOE1 is a substrate for caspase-1. (A) Endogenously expressed TOE1 was immunoprecipitated from a lysate of Jurkat cells using the rabbit polyclonal α-TOE1 antibody or pre-immune serum (control=C) and ProteinA/Sepharose™ beads. Immunoprecipitates complexed beads were then incubated with 5 units of recombinant caspase-1 (from Calbiochem) or control buffer, as indicated, for 4 hours at 37° C., and then separated on a 12% Acrylamide/SDS gel and transferred on a PVDF membrane. 50 kDa, 40 kDa and 30 kDa fragments are visible after probing the blot with the monoclonal α-TOE1 antibody. (B) Cell lysates from cells transfected with a TOE1 expression construct were subjected to immunoprecipitation with the rabbit α-TOE1 antibody and ProteinA/Sepharose™ beads.
Since, as described earlier, CAF activity is reported to be dependent upon proteolytic activity, we decided to explore the possibility that TOE1 is a protease substrate. […] The software predicts a single cleavage for the tetrapeptide FTAD at position 214-217 of TOE1. We considered this potential cleavage to warrant further study for several reasons. […] Under our experimental conditions we observed processing by casapse-1 generating fragments of 50, 40, and 30 kDa as detected with a monoclonal anti-TOE1 antibody whose target epitope we have mapped to residues 218-282 (FIG. 4A). […]

Assay [2] deals with Tat driven HIV LTR expression. As to the kind of experiment: Tat-driven HIV LTR (TAR) luciferase reporter assay in transfected HeLa cells. The assay is classed as cell-based. As to conditions: for inhibitory activity of Tat activation of HIV LTR compared with wild-type TOE1: HeLa cells, luciferase, FIG. 7. The method, then: FIG. 3: TOE1 inhibits Tat driven HIV LTR expression. HeLa cells were seeded into 24 wells plates at 30,000 cells/well and then transfected the following day with the indicated constructs at 200 ng total DNA+0.5 μl of FuGENE™ (Roche)/well. 24 hours after transfection the cells were lysed and the luciferase expression was determined by reading Relative Bioluminescent Units (RLU). This graph is representative of multiple experiments performed in triplicates.
FIG. 7: TOE1 processing by caspase-1 enhances its inhibition of HIV LTR transactivation by Tat. (A) HeLa cells were transfected with the indicated constructs, and then luciferase assay was performed as described above. […] All transfection and measurements were performed in triplicate.
FIG. 9: Defining the minimal TOE1 region able to inhibit Tat-induced HIV LTR activation. […] Results are expressed as percentage activation of the HIV LTR referenced to Tat. All transfections and measurements were performed in triplicate, and results are representative of multiple independent experiments.
To test for a potential interaction between TOE1 and Tat, we assessed the effect of TOE1 expression on Tat driven transactivation of the TAR element. We employed a luciferase expression system controlled by the HIV LTR including the TAR sequence.

For assay [3], the system named is Tat-driven HIV LTR activity. Put plainly: Co-culture of transfected 293T cells with HeLa cells carrying HIV LTR reporter and Tat. Conditions: 293T transfected with construct, co-cultured 24 hours with HeLa (HIV LTR + Tat), FIG. 11. Format: cell-based. As to the method:
FIG. 11. TOE1 can be secreted and inhibits HIV LTR in neighboring cells. HeLa cells were transfected with either HIV LTR alone, or together with Tat as indicated. Separately, 293T cells were transfected with either control empty vector (C), full length TOE1 (TOE1), or a deletion mutant comprising amino acids 283-363 (SEQ ID NO:13) containing the basic region located at 335-348 (283-363). 24 hours following transfection, the transfected 293T cells were placed in co-culture with the transfected HeLa cells to provide the samples. 24 hours after co-culture, samples were assayed for Tat-driven HIV LTR activity.
To determine if TOE1 could be secreted and subsequently taken up by other neighboring cells, we performed co-culture experiments of cells transfected with the HIV LTR reporter and Tat protein in one cell type and either full length TOE1 or the potential protein transduction domain of TOE1 comprising amino acids 283-363 (SEQ ID NO:13) in another cell type. […] Therefore, a minimal domain of TOE1, comprising the basic stretch of amino acids at position 335-347 (SEQ ID NO:15), was able to function as a protein transduction domain as well as an effective inhibitor of Tat transcriptional activation.

Entries after “also recorded” stand apart in the source; their conditions may differ.

Take YVAD-CHO: in assay [1], the “inhibition of TOE1 processing by caspase-1” value was “completely prevents the processing; also recorded: processing was inhibited”.

Turning to delN282, in assay [2], the “inhibitory activity of Tat activation of HIV LTR compared with wild-type TOE1” value is “more efficient inhibitor; also recorded: greater inhibition than wild-type TOE1”. Turning to “TOE1: human TOE1 (target of EGR1) protein, full length, 510 amino acids”, the “effect on the LTR in the absence of Tat” value in assay [2] (HIV LTR luciferase, no Tat) is reported as “did not have any effect”. In addition, in assay [2] (TOE1 coexpressed with Tat, HIV LTR incl. TAR luciferase, different experiments (FIG. 3)), the “reduction of Tat transactivation potential” value was 50-80%. For the same substance, the “inhibition of Tat activation of the HIV LTR in neighboring cells” value in assay [3] is on record as “effectively inhibiting”. With D195/282A, the “inhibitory activity of Tat activation of HIV LTR compared with wild-type TOE1” value in assay [2] is on record as “less effective than wild type TOE1; also recorded: significantly less effective”. As for “335-363 (KRRRRRRREKRKRALLNLPGTQTSGEAKD; K335/D363 Deletion mutant of TOE1)”, the “inhibition of Tat activation of the HIV LTR by TOE1 deletion mutants” value in assay [2] (transfected deletion mutants, FIG. 9) is recorded as “significantly inhibiting”.

These data come from US9422350B2, “Target of EGR1 (TOE1) polypeptides for inhibition of HIV” (priority 2010, dated 2016).
